“And” between values parts separate entries of the source, which are not always exact repeats. Equal entries are not always repeated. Blank lines part the entries; values can stand above or below the molecule they belong to.
Key:
hGal8^NTD [1] = target: T1, hGal8^NTD (Homo sapiens, UniProt O00214); test: Lactose binding affinity, summary over NMR, intrinsic fluorescence, BLI and ITC; design: hexahistidine tag (N); made in house; host or cells: Escherichia coli BL21 (DE3); conditions: summary over the biophysical tools
T1 sequence (O00214 1-155 limits assumed): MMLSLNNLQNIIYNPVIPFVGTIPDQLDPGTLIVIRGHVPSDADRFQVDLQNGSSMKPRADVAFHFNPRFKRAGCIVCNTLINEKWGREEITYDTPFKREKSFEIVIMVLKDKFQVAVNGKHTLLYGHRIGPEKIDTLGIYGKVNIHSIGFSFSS
Protocol: (§1) The samples were subjected to intrinsic fluorescence measurements using a 3 mm quartz cell (Hellma) and a fluorimeter (Jasco FP-8500, Hachioji, Tokyo, Japan). […] The resulting titration data were processed by SVD analysis, as described previously.
(§2) BLI experiments were carried out using an Octet Red96 system (FortéBio, Menlo Park, CA, USA), as described previously.
(§3) HSQC spectra were also analysed by the TITAN program using a two-state binding model. […] Eight peaks with significant CSPs were chosen to be fitted for each titration experiment. Error analysis was performed by the bootstrap resampling module in the program with 100 resampled spectra.

hGal8^NTD [2] = target: T1, hGal8^NTD; test: Isothermal titration calorimetry (ITC)
Protocol: (§5) The experiments were carried out at 298 K and in PBS. […] The thermograms were extracted, processed and subjected to nonlinear regression using the built-in software based on Origin (OriginLab, Northampton, MA, USA) to determine the respective binding constants.

hGal8^CTD [3] = target: T2, hGal8^CTD (Homo sapiens, UniProt O00214); test: Bio-layer interferometry (BLI), steady-state fit; format: binding; design: hGal8 N-terminal domain (hGal8^NTD) and C-terminal domain (hGal8^CTD); made in house; host or cells: Escherichia coli BL21 (DE3); conditions: biotinylated galectin on SSA biosensor
T2 sequence (O00214 187-317 limits assumed): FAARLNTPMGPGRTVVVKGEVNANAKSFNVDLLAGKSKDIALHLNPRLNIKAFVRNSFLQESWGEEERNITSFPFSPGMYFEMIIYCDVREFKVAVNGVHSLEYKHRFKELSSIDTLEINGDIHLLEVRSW
Protocol: as §2

[4] = target: T3, hGal8^CTD (C-terminal domain of human galectin-8) (Homo sapiens, UniProt O00214); test: NMR titration, global fit of chemical shift perturbations (CSP); format: binding; conditions: 298 K, global fit of CSPs > 2σ
T3 construct: the N-terminal and C-terminal domains of galectin-8 (hGal8^NTD and hGal8^CTD, respectively); made in house; host or cells: Escherichia coli BL21 (DE3)
T3 sequence (O00214 187-317 limits assumed): T2 sequence (O00214 187-317 limits assumed)

[5] = target: T4, hGal8^NTD (N-terminal domain of human galectin-8) (Homo sapiens, UniProt O00214); test: 2D NMR lineshape analysis (TITAN), two-state binding model; conditions: Lactose Kd, 298 K
T4 construct: hexahistidine tag (N); made in house; host or cells: Escherichia coli BL21 (DE3)
T4 sequence (O00214 1-155 limits assumed): T1 sequence (O00214 1-155 limits assumed)
Protocol: as §3

[6] = target: T3, hGal8^CTD (C-terminal domain of human galectin-8); test: as above; conditions: 298 K
Protocol: as §3

hGal7 = target: T5, hGal7 (Homo sapiens, UniProt P47929); test: Lactose binding affinity, summary over NMR, intrinsic fluorescence, BLI and ITC
T5 construct: The constructs encoding the open reading frames of hGal1, hGal7 and hGal8 with a hexahistidine tag at the N-termini; hexahistidine (N); made in house; host or cells: Escherichia coli BL21 (DE3)
T5 sequence (P47929 whole entry): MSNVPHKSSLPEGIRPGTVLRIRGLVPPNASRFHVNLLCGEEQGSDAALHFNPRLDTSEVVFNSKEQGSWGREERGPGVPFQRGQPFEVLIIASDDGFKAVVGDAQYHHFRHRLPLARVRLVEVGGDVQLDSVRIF
Protocol: as §1, §2, §3

hGal7 (human galectin-7) [7] = target: T6, hGal7 (human galectin-7) (Homo sapiens, UniProt P47929); test: Isothermal titration calorimetry (ITC)
T6 sequence (P47929 whole entry): as above
Protocol: as §5

[8] = target: T7, hGal8^full(CTD) (CTD of full-length galectin-8) (Homo sapiens, UniProt O00214); test: NMR titration, global fit of chemical shift perturbations (CSP); conditions: Lactose Kd, CTD of full-length hGal8 (tandem-repeat, 17-residue linker), 298 K
T7 sequence (O00214 1-317): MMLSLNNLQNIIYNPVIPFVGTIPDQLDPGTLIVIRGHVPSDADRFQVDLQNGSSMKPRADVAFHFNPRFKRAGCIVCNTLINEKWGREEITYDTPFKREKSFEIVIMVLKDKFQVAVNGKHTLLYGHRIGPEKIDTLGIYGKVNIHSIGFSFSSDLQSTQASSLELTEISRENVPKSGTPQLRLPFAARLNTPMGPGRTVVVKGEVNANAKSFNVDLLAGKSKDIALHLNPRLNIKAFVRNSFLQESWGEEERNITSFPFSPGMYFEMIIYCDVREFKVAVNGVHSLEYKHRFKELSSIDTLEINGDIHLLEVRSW

[9] = target: T7, hGal8^full(CTD) (CTD of full-length galectin-8); test: 2D NMR lineshape analysis (TITAN), two-state binding model; design: A full-length hGal8 (hGal8^full) variant encompassing a 17-residue linker was used; hexahistidine tag (N); made in house; host or cells: Escherichia coli BL21 (DE3); conditions: CTD of full-length hGal8 (N215), 298 K
Protocol: (§4) The advantage of using NMR titration to determine Kd values is the ability to simultaneously characterise microscopy binding events at different binding sites. […] The same lineshape analysis was performed for hGal8^full titration experiments, which yielded similar Kd values to those derived from CSP data (Figure S2; Table 1).
as §3

[10] = target: T8, hGal8^full(NTD) (NTD of full-length galectin-8) (Homo sapiens, UniProt O00214); test: as above; design: A full-length hGal8 (hGal8^full) variant encompassing a 17-residue linker was used; hexahistidine tag (N); made in house; host or cells: Escherichia coli BL21 (DE3); conditions: NTD of full-length hGal8 (G127), 298 K
T8 sequence (O00214 1-317): T7 sequence (O00214 1-317)
Protocol: as §4, §3

hGal7 (human galectin-7) [11] = target: T6, hGal7 (human galectin-7); test: as above; design: The constructs encoding the open reading frames of hGal1, hGal7 and hGal8 with a hexahistidine tag at the N-termini; hexahistidine tag (N); made in house; host or cells: Escherichia coli BL21 (DE3); conditions: 298 K
Protocol: as §3

hGal8^NTD [12] = target: T1, hGal8^NTD; test: Intrinsic tryptophan fluorescence titration (SVD analysis); format: binding; design: hexahistidine tag (N); made in house; host or cells: Escherichia coli BL21 (DE3); conditions: 298 K, PBS, 10 μM protein
Text: as §1

[13] = target: T8, hGal8^full(NTD) (NTD of full-length galectin-8); test: NMR titration, global fit of chemical shift perturbations (CSP); conditions: Lactose Kd, NTD of full-length hGal8 (tandem-repeat, 17-residue linker), 298 K
hGal8^CTD [14] = target: T2, hGal8^CTD; test: Isothermal titration calorimetry (ITC)
Protocol: as §5

[15] = target: T4, hGal8^NTD (N-terminal domain of human galectin-8); test: NMR titration, global fit of chemical shift perturbations (CSP); format: binding; conditions: 298 K, global fit of CSPs > 2σ
hGal7 (human galectin-7) [16] = target: T6, hGal7 (human galectin-7); test: as above; format: binding; design: The constructs encoding the open reading frames of hGal1, hGal7 and hGal8 with a hexahistidine tag at the N-termini; hexahistidine tag (N); made in house; host or cells: Escherichia coli BL21 (DE3); conditions: 298 K, global fit of CSPs > 2σ
hGal7 (human galectin-7) [17] = target: T6, hGal7 (human galectin-7); test: Bio-layer interferometry (BLI), steady-state fit; format: binding; design: The constructs encoding the open reading frames of hGal1, hGal7 and hGal8 with a hexahistidine tag at the N-termini; hexahistidine tag (N); made in house; host or cells: Escherichia coli BL21 (DE3); conditions: biotinylated galectin on SSA biosensor
Protocol: as §2

[18] = target: glutathione-S-transferase (GST)-fused hGal8^NTD; design: method as in PMID 12851289; conditions: read-out: lactose Kd (SPR); cited from earlier work
GST-fused hGal8^CTD = target: GST-fused hGal8^CTD; design: method as in PMID 12851289; conditions: read-out: lactose Kd (SPR); cited from earlier work
hGal8^CTD [19] = target: T2, hGal8^CTD; test: Intrinsic tryptophan fluorescence titration (SVD analysis); format: binding; design: hGal8 N-terminal domain (hGal8^NTD) and C-terminal domain (hGal8^CTD); made in house; host or cells: Escherichia coli BL21 (DE3); conditions: 298 K, PBS, 10 μM protein
Text: as §1

hGal7 (human galectin-7) [20] = target: T6, hGal7 (human galectin-7); test: as above; format: binding; design: The constructs encoding the open reading frames of hGal1, hGal7 and hGal8 with a hexahistidine tag at the N-termini; hexahistidine tag (N); made in house; host or cells: Escherichia coli BL21 (DE3); conditions: Lactose Kd, 298 K, PBS, 10 μM protein
Text: as §1

hGal1 (human galectin-1) = hGal1 (human galectin-1) (Homo sapiens, UniProt P09382); test: Isothermal titration calorimetry (ITC); conditions: 298 K, PBS
Sequence of hGal1 (human galectin-1) (P09382 whole entry, the tested form may be a part): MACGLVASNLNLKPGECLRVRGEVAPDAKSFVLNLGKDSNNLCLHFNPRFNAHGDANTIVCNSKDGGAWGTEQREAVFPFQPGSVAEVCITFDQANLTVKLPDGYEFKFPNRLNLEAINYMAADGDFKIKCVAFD
Protocol: as §5

[21] = target: GST-fused tandem-repeat construct (hGal8); design: method as in PMID 12851289; conditions: read-out: apparent lactose Kd (SPR); cited from earlier work
hGal8^CTD [22] = target: T2, hGal8^CTD; test: Lactose binding affinity, summary over NMR, intrinsic fluorescence, BLI and ITC; design: hGal8 N-terminal domain (hGal8^NTD) and C-terminal domain (hGal8^CTD); made in house; host or cells: Escherichia coli BL21 (DE3); conditions: summary over the biophysical tools
Protocol: as §1, §2, §3

hGal8^NTD [23] = target: T1, hGal8^NTD; test: Bio-layer interferometry (BLI), steady-state fit; format: binding; design: hexahistidine tag (N); made in house; host or cells: Escherichia coli BL21 (DE3); conditions: biotinylated galectin on SSA biosensor
Protocol: as §2

hGal3 = conditions: cited from earlier work

- Kd (hGal8^NTD [1]): 84 to 93 µM and 80 µM
- Kd (hGal8^NTD [2]): 93 ± 1 µM
- K (binding constant, ITC OneSites model) (hGal8^NTD [2]; hGal8^NTD, 298 K, PBS): 1.08E4 ± 121 M-1
- N (ITC OneSites model) (hGal8^NTD [2]; hGal8^NTD, 298 K, PBS): 0.818 ± 0.0154 sites
- ΔH (ITC OneSites model) (hGal8^NTD [2]; hGal8^NTD, 298 K, PBS): -1.466E4 ± 302.2 cal/mol
- ΔS (ITC OneSites model) (hGal8^NTD [2]; hGal8^NTD, 298 K, PBS): -30.7 cal/mol/deg
- Kd (hGal8^CTD [3]): 873 ± 526 µM
- Kd [4]: 664 ± 59 µM
- Kd [5]: 86.3 µM and 86 µM
- Kd [6]: 950 ± 10 µM
- Kd (hGal7): ~350 µM
- Kd (hGal7 (human galectin-7) [7]): 323 µM
- N (ITC OneSites model) (hGal7 (human galectin-7) [7]; hGal7, 298 K, PBS): 0.0702 ± 0.00475 sites
- ΔH (ITC OneSites model) (hGal7 (human galectin-7) [7]; hGal7, 298 K, PBS): -1.883E4 ± 1326 cal/mol
- ΔS (ITC OneSites model) (hGal7 (human galectin-7) [7]; hGal7, 298 K, PBS): -47.2 cal/mol/deg
- Kd [8]: ~1500 µM and 1480 µM
- Kd [9]: 1186 ± 11 µM
- Kd [10]: 167 ± 7 µM
- Kd (hGal7 (human galectin-7) [11]): 352 ± 9 µM
- Kd (hGal8^NTD [12]): 88 ± 2 µM
- Kd [13]: ~130 µM and 128 µM
- Kd (hGal8^CTD [14]): 893 ± 25 µM
- K (binding constant, ITC OneSites model) (hGal8^CTD [14]; hGal8^CTD, 298 K, PBS): 1.12E3 ± 31.0 M-1
- N (ITC OneSites model) (hGal8^CTD [14]; hGal8^CTD, 298 K, PBS): 1.68 ± 0.212 sites
- ΔH (ITC OneSites model) (hGal8^CTD [14]; hGal8^CTD, 298 K, PBS): -3.045 ± 0.4012 kcal/mol
- ΔS (ITC OneSites model) (hGal8^CTD [14]; hGal8^CTD, 298 K, PBS): 3.74 cal/mol/deg
- Kd [15]: 84 ± 9 µM
- Kd (hGal7 (human galectin-7) [16]): 397 ± 14 µM
- Kd (hGal7 (human galectin-7) [17]): 347 ± 180 µM
- Kd (hGal8^CTD [19]): 772 ± 56 µM
- Kd (hGal7 (human galectin-7) [20]): 340 µM and 331 µM
- N (ITC OneSites model) (hGal1 (human galectin-1)): 1.51 ± 0.113 sites
- ΔH (ITC OneSites model) (hGal1 (human galectin-1)): -5.772 ± 0.4897 kcal/mol
- ΔS (ITC OneSites model) (hGal1 (human galectin-1)): -2.53 cal/mol/deg
- Kd (hGal8^CTD [22]): 664 to 950 µM and 800 µM
- Kd (hGal8^NTD [23]): 89 ± 26 µM
Structure (SMILES): OC[C@H]1O[C@@H](O[C@H]2[C@H](O)[C@@H](O)C(O)O[C@@H]2CO)[C@H](O)[C@@H](O)[C@H]1O (mixture of isomers) [Lactose, lactose]
- Kd [18]: 80 µM
- Kd (GST-fused hGal8^CTD): 440 µM
- Kd [21]: 140 µM

Structure (SMILES): OC[C@H]1O[C@@H](S[C@@H]2O[C@H](CO)[C@H](O)[C@H](n3cc(-c4cccc(F)c4)nn3)[C@H]2O)[C@H](O)[C@@H](n2cc(-c3cccc(F)c3)nn2)[C@H]1O [TD139]
- Kd (hGal3): low nanomolar
